Assay: log k′ (degree of lipophilic character) by gradient HPLC
Type: physicochemical
Settings: XTerra MS C18 column; acetonitrile/pH6.8 buffer gradient 5:95-95:5/20 min
Method: As to each compound, the measurement results of NMR or log k′ were disclosed.
log k′ is a value which means degree of the lipophilic character, and is calculated by the following formula. log k′=log(tR−t0)/t0 • tR: retention time of compound under gradient condition • t0: retention time of standard material not retained in column
XTerra MS C18 5 μm, 2.1×100 mm column (made by Waters) was used for measurement. The elution was a straight line inclination of acetonitrile/pH6.8 buffer (5:95˜95:5/20 min) at flow velocity 0.25 mL/min.

CONC(=O)C(C)(C)/C=C/n1ncc(C(=O)N[C@H]2C3CC4CC2C[C@](OC(N)=O)(C4)C3)c1OCC(C)C [Compound I-65]
log k′: 0.838

CCC(=O)N[C@]12CC3CC(C1)[C@@H](NC(=O)c1cnn(/C=C/C(C)(C)C(N)=O)c1OCC(C)C)C(C3)C2 [Compound I-20]
log k′: 0.845

CC(C)COc1c(C(=O)N[C@H]2C3CC4CC2C[C@](OC(N)=O)(C4)C3)cnn1/C=C/C(C)(C)N1CCOC1=O [Compound I-22]
log k′: 0.879

CC(=O)NC[C@]12CC3CC(C1)[C@@H](NC(=O)c1cnn(/C=C/C(C)(C)NC(C)=O)c1OCC(C)C)C(C3)C2 [Compound I-56]
log k′: 0.838

CC(C)COc1c(C(=O)N[C@H]2C3CC4CC2C[C@](COC(N)=O)(C4)C3)cnn1/C=C/C(C)(C)C(=O)NC(N)=O [Compound I-83]
log k′: 0.87

CC(=O)NC(C)(C)/C=C/n1ncc(C(=O)N[C@H]2C3CCCC2C[C@@H](C(N)=O)C3)c1OCC(C)C [Compound I-42]
log k′: 0.805

COC(=O)NC(C)(C)/C=C/n1ncc(C(=O)N[C@H]2C3CC4CC2C[C@](CO)(C4)C3)c1OCC(C)C [Compound I-19]
log k′: 0.907

COC(=O)NC(C)(C)/C=C/n1ncc(C(=O)N[C@H]2C3CCCC2C[C@@H](C#N)C3)c1OCC(C)C [Compound I-33]
log k′: 0.955

CONC(=O)C(C)(C)/C=C/n1ncc(C(=O)N[C@H]2C3CC4CC2C[C@](O)(C4)C3)c1OCC(C)C [Compound I-62]
log k′: 0.794

CCONC(=O)[C@]12CC3CC(C1)[C@@H](NC(=O)c1cnn(/C=C/C(C)(C)NC(C)=O)c1OCC(C)C)C(C3)C2 [Compound I-59]
log k′: 0.833

CNC(=O)OC[C@]12CC3CC(C1)[C@@H](NC(=O)c1cnn(/C=C/C(C)(C)NC(C)=O)c1OCC(C)C)C(C3)C2 [Compound I-66]
log k′: 0.886

CC(C)COc1c(C(=O)NC2C3CC4(O)CC2CC(O)(C3)C4)cnn1/C=C/C(C)(C)C(N)=O (stereo not shown) [Compound I-82]
log k′: 0.682

CNC(=O)C(C)(C)/C=C/n1ncc(C(=O)N[C@H]2C3CC4CC2C[C@](OC(N)=O)(C4)C3)c1OCC(C)C [Compound I-61]
log k′: 0.841

CC(C)COc1c(C(=O)N[C@H]2C3CC4CC2C[C@](OC(N)=O)(C4)C3)cnn1/C=C/C(C)(C)NC(=O)C(C)C [Compound I-27]
log k′: 0.903

CC(C)COc1c(C(=O)NC2C3CC4CC2CC(OC(N)=O)(C4)C3)cnn1/C=C/C(C)(C)CO (stereo not shown) [Compound I-73]
log k′: 0.876

COC(=O)NC(C)(C)/C=C/n1ncc(C(=O)NC2CCCCCCCCC2)c1OCC(C)C [Compound I-3]
log k′: 1.066

CC(=O)NC(C)(C)/C=C/n1ncc(C(=O)N[C@H]2C3CCCC2C[C@@H](COC(N)=O)C3)c1OCC(C)C [Compound I-45]
log k′: 0.865

CC(=O)NC(C)(C)/C=C/n1ncc(C(=O)N[C@H]2C3CC4CC2C[C@](CO)(C4)C3)c1OC(C)C [Compound I-31]
log k′: 0.819

COC(=O)NC(C)(C)CCn1ncc(C(=O)N[C@H]2C3CC4CC2C[C@](COC(N)=O)(C4)C3)c1OCC(C)C [Compound I-58]
log k′: 0.899

CC(C)COc1c(C(=O)N[C@H]2C3CC4CC2C[C@](OC(N)=O)(C4)C3)cnn1/C=C/C(C)(C)NC(=O)CCC1CCCC1 [Compound I-50]
log k′: 0.989

CC(C)COc1c(C(=O)N[C@H]2C3CC4CC2C[C@](COC(N)=O)(C4)C3)cnn1/C=C/C(C)(C)CO [Compound I-74]
log k′: 0.896

CC(=O)NC(C)(C)/C=C/n1ncc(C(=O)N[C@H]2C3CC4CC2C[C@](C(=O)NC(N)=O)(C4)C3)c1OCC(C)C [Compound I-67]
log k′: 0.82

COC(=O)NC(C)(C)/C=C/n1ncc(C(=O)NC23CCC(C(N)=O)(CC2)C3)c1OCC(C)C [Compound I-13]
log k′: 0.822

CC(C)COc1c(C(=O)N[C@H]2C3CC4CC2C[C@](O)(C4)C3)cnn1/C=C/C(C)(C)NC(=O)C1CCCC1 [Compound I-35]
log k′: 0.921

COC(=O)NC(C)(C)/C=C/n1ncc(C(=O)N[C@H]2C3CCCC2C[C@@H](COC(N)=O)C3)c1OCC(C)C [Compound I-46]
log k′: 0.913

CCC(=O)N[C@]12CC3CC(C1)[C@@H](NC(=O)c1cnn(/C=C/C(C)(C)NC(=O)OC)c1OCC(C)C)C(C3)C2 [Compound I-21]
log k′: 0.909

CC(C)COc1c(C(=O)N[C@H]2C3CC4CC2C[C@](O)(C4)C3)cnn1/C=C/C(C)(C)NC(=O)CC(C)C [Compound I-26]
log k′: 0.895

CC(C)COc1c(C(=O)N[C@H]2C3CC4CC2C[C@](O)(C4)C3)cnn1/C=C/C(C)(C)NC(=O)C(C)C [Compound I-25]
log k′: 0.87

CCNC(=O)C(C)(C)/C=C/n1ncc(C(=O)N[C@H]2C3CC4CC2C[C@](OC(N)=O)(C4)C3)c1OCC(C)C [Compound I-71]
log k′: 0.868

CC(C)COc1c(C(=O)N[C@H]2C3CC4CC2C[C@](OC(N)=O)(C4)C3)cnn1/C=C/C(C)(C)NC(=O)COc1ccccc1 [Compound I-75]
log k′: 0.95

CC(=O)NC(C)(C)CCn1ncc(C(=O)N[C@H]2C3CC4CC2C[C@](OC(N)=O)(C4)C3)c1OCC(C)C [Compound I-11]
log k′: 0.831

COC(=O)NC(C)(C)/C=C/n1ncc(C(=O)N[C@H]2C3CC4CC2C[C@](COC(N)=O)(C4)C3)c1OCC(C)C [Compound I-17]
log k′: 0.916

CC(C)COc1c(C(=O)N[C@H]2C3CC4CC2C[C@](OC(N)=O)(C4)C3)cnn1/C=C/C(C)(C)NC(=O)CC(C)C [Compound I-28]
log k′: 0.927

COC(=O)N[C@]12CC3CC(C1)[C@@H](NC(=O)c1cnn(/C=C/C(C)(C)NC(C)=O)c1OCC(C)C)C(C3)C2 [Compound I-54]
log k′: 0.886

CCC(=O)NC(C)(C)/C=C/n1ncc(C(=O)N[C@H]2C3CCCC2C[C@@H](CO)C3)c1OCC(C)C [Compound I-69]
log k′: 0.866

CC(C)COc1c(C(=O)N[C@H]2C3CC4CC2C[C@](OC(N)=O)(C4)C3)cnn1/C=C/C(C)(C)NC(=O)CCc1ccccc1 [Compound I-76]
log k′: 0.946

CC(=O)NC(C)(C)/C=C/n1ncc(C(=O)N[C@H]2C3CC4CC2C[C@](OC(N)=O)(C4)C3)c1OCC(C)C [Compound I-10]
log k′: 0.798

CC(C)COc1c(C(=O)N[C@H]2C3CC4CC2C[C@](O)(C4)C3)cnn1/C=C/C(C)(C)NC(=O)C1CCOCC1 [Compound I-79]
log k′: 0.818

Cc1nnc(C(C)(C)/C=C/n2ncc(C(=O)N[C@H]3C4CC5CC3C[C@](OC(N)=O)(C5)C4)c2OCC(C)C)o1 [Compound I-8]
log k′: 0.883

CC(C)COc1c(C(=O)N[C@H]2C3CC4CC2C[C@](OC(N)=O)(C4)C3)cnn1/C=C/C(C)(C)NC(=O)C1CCOCC1 [Compound I-80]
log k′: 0.852

CC(=O)NC(C)(C)CCn1ncc(C(=O)N[C@H]2C3CC4CC2C[C@](CO)(C4)C3)c1OCC(C)C [Compound I-16]
log k′: 0.842

CCCC(=O)NC(C)(C)/C=C/n1ncc(C(=O)N[C@H]2C3CC4CC2C[C@](O)(C4)C3)c1OCC(C)C [Compound I-34]
log k′: 0.877

CC(C)COc1c(C(=O)NC2CCCCCCCCC2)cnn1/C=C/C(C)(C)C(N)=O [Compound I-2]
log k′: 1.014

COCC(=O)NC(C)(C)/C=C/n1ncc(C(=O)N[C@H]2C3CC4CC2C[C@](OC(N)=O)(C4)C3)c1OCC(C)C [Compound I-51]
log k′: 0.882

CC(=O)NC(C)(C)/C=C/n1ncc(C(=O)N[C@H]2C3CCCC2C[C@@H](CO)C3)c1OCC(C)C [Compound I-43]
log k′: 0.851

CC(=O)NC(C)(C)/C=C/n1ncc(C(=O)N[C@H]2C3CCCC2C[C@H](C(N)=O)C3)c1OCC(C)C [Compound I-5]
log k′: 0.795

CCC(=O)NC(C)(C)/C=C/n1ncc(C(=O)N[C@H]2C3CC4CC2C[C@](OC(N)=O)(C4)C3)c1OCC(C)C [Compound I-24]
log k′: 0.876

CC(C)COc1c(C(=O)N[C@H]2C3CC4CC2C[C@](OC(N)=O)(C4)C3)cnn1/C=C/C(C)(C)C(=O)NC(N)=O [Compound I-18]
log k′: 0.866

CC(C)COc1c(C(=O)N[C@H]2C3CC4CC2C[C@](O)(C4)C3)cnn1/C=C/C(C)(C)NC(=O)N1CCOCC1 [Compound I-81]
log k′: 0.813

CC(=O)NCC(C)(C)/C=C/n1ncc(C(=O)N[C@H]2C3CC4CC2C[C@](O)(C4)C3)c1OCC(C)C [Compound I-64]
log k′: 0.814

CONC(=O)[C@]12CC3CC(C1)[C@@H](NC(=O)c1cnn(/C=C/C(C)(C)NC(C)=O)c1OCC(C)C)C(C3)C2 [Compound I-60]
log k′: 0.813

CC(=O)NCC(C)(C)/C=C/n1ncc(C(=O)N[C@H]2C3CC4CC2C[C@](OC(N)=O)(C4)C3)c1OCC(C)C [Compound I-68]
log k′: 0.85

COC(=O)NC(C)(C)/C=C/n1ncc(C(=O)N[C@H]2C3CC4CC2C[C@](CO)(C4)C3)c1OC(C)C [Compound I-23]
log k′: 0.864

CC(C)COc1c(C(=O)N[C@H]2C3CC4CC2C[C@](OC(N)=O)(C4)C3)cnn1/C=C/C(C)(C)NC(=O)C1CCCC1 [Compound I-49]
log k′: 0.945

CCC(=O)NC(C)(C)/C=C/n1ncc(C(=O)N[C@H]2C3CCCC2C[C@@H](COC(N)=O)C3)c1OCC(C)C [Compound I-70]
log k′: 0.882

Reference: patent US8383622B2 (priority 2007, dated 2013)
